Data taken from publication PMC8269107, “Lipidation of Temporin-1CEb Derivatives as a Tool for Activity Improvement, Pros and Cons of the Approach” (International Journal of Molecular Sciences, 2021).
Values after ≈ are worked out from the molar mass of the structure shown. Read-outs that look alike come from different tables or passages of the source. Where a SMILES comes first, the peptide text is derived from it. [ ]: non-standard residue; d: D form. The star is where a group is joined. Palmitoyl = CCCCCCCCCCCCCCCC(=O)*; Lauroyl = CCCCCCCCCCCC(=O)*; Pentanoyl = CCCCC(=O)*; AEEA = NCCOCCOCC(=O)O; Ahx = NCCCCCC(=O)O; βAla = NCCC(=O)O

Columns and labels:
[1] = tested on: S. aureus (PCM 2054) biofilm; test: Biofilm eradication assay, pre-formed 24 h old biofilm (MTT); format: cell-based, Staphylococcus aureus; settings: S. aureus pre-formed 24 h old biofilm, 24 h treatment
Experimental: Biofilm eradication activity of the synthesized compounds was analyzed against 24 h old biofilms of S. aureus and C. albicans. In the case of bacteria, an overnight culture of S. aureus in Tryptic Soy Broth (TSB) supplemented with 2% glucose (TSB/+G) was used to prepare inoculum for the experiments. Briefly, 5 mL of 24 h culture was centrifuged at 5000× g, washed with sterile PBS and suspended in a fresh TSB/+G. The bacterial suspension was then diluted in a fresh growth medium to obtain the final concentration of colonies of about 1 × 10^7 cells per ml. Further, 200 μL of the inoculum was transferred to each well of 96-well sterile polystyrene flat-bottomed plate, and bacteria were then incubated for the next 24 h without shaking at 37 °C.
After that, each well of the plates containing bacterial or fungi biofilm was washed three times with PBS in order to remove all non-adherent cells. Then, peptide solutions of 200 µL ranging from 50 to 0,39 µg/mL prepared in TSB +/G in the case of experiments on S. aureus biofilm, and (RPMI-1640/+G) in the case of C. alibcans, were prepared and transferred into the microtiter plates. After the addition of the peptides, the experiments were continued for the next 24 h.
The reduction in biofilm viability was analyzed by means of MTT assay. Briefly, 20 μL of MTT solution (5 mg/mL in PBS) was added to prewashed wells with exchanged medium (180 μL of fresh medium) wells containing bacterial/yeast biofilms. Plates were then incubated in the dark for the next 3 h at 37 °C. After that time, the medium was replaced with 6 mM HCl in isopropanol and, when the reduced MTT was fully dissolved, the plates were read at 570 nm. Activity against fully developed 24 h old biofilm was described as biofilm eradication concentration (BEC50 expressed in µg/mL), which corresponded to the concentration of the compound able to reduce 50% of biofilm viability compared with the growth control.

[2] = tested on: S. aureus USA300; format: cell-based, Staphylococcus aureus
Source text: (§1) Escherichia coli (PCM 2057 = ATCC 25922), Staphylococcus aureus (PCM 2054 = ATCC 25923), Staphylococcus epidermidis (PCM 2118 = ATCC 14990), Bacillus subtilis (PCM 2224 = ATCC 9799), Bacillus cereus (PCM 482 = ATCC 10702) and Pseudomonas aeruginosa (PCM 499 = ATCC 10145) were obtained from the Polish Collection of Microorganisms. Fungi strains Candida albicans (CCM 8186 = CNTC 49/64), Candida glabrata (CCM 8270 = ATCC 90030), Candida parapsilosis (CCM 8260 = ATCC 22019) and Candida krusei (CCM 8271 = ATCC 6258) were acquired from the Czech Collection of Microorganisms. S. aureus USA300 (wild type strain), the reference strain of Klebsiella pneumoniae (ATCC 13883) and clinical isolates of Pseudomonas aeruginosa (PA1, PA2) collected from nonrelated patients admitted to the Stefan Zeromski Specialist Municipal Hospital in Krakow (Poland) were kindly provided by the research group of the Department of Microbiology, Faculty of Biochemistry, Biophysics and Biotechnology, Jagiellonian University, Krakow, Poland.
(§2) Luria-Bertani broth (LB) and Sabouraud Dextrose broth (SB) (Biocorp, Poland) were used for cultivation of bacteria and fungi strains, respectively. The antimicrobial activity of the peptides were analyzed through determination of MIC (minimal inhibitory concentration) parameters according to Clinical and Laboratory Standards (CLSI) guidelines developed for aerobic bacteria and yeasts, respectively. Mueller-Hinton broth (MHB) was used as the working medium for all bacterial strains, while in the case of fungi, RPMI-1640 (with L-glutamine, without sodium bicarbonate) growth medium buffered with MOPS (morpholinepropanesulfonic acid) and supplemented with 2% glucose was used. Inoculum was prepared from freshly grown cultures of microorganisms at their exponential phase of growth. […] Plates were then incubated for 24 h at 37 °C in the case of bacteria and at 35 °C in the case of fungi. After that time, absorbance was read at 590 nm with a Perkin Elmer plate reader. Cultures without peptide were treated as positive control, while uninoculated media were defined as negative control. All measurements were run at least in triplicate.

[3] = tested on: K.pneumoniae ATCC 13883; format: cell-based, Klebsiella pneumoniae
Source text: as §1, §2

[4] = ITC, binding to zwitterionic membrane; settings: 25 °C; for pKITC: POPC LUVs
Experimental: The ITC experiments were performed according to the previously reported protocol in PBS (pH 7.4) at 25 °C using an AutoITC isothermal titration calorimeter (MicroCal Inc., Northampton, USA) with a 1.4491-mL sample and reference cells filled with distilled water. In each experiment, 29 injections of 10.02 µL each (2 µL for the first only) of a liposome solution at a concentration of 1.31 mM were added into a 0.05 mM and/or 0.1 mM peptide solution. An initial 2-μL injection was discarded from each dataset in order to remove the effect of titrant diffusion across the syringe tip during the equilibration process. Each injection lasted 20 s. The titrant was injected at 4 min intervals to ensure that the titration peak returned to the baseline before the next injection. To ensure a homogeneous mixing in the cell, the stirrer speed was kept constant at 300 rpm.
A complete binding of the peptide to lipid vesicles provides the possibility for determination of the total binding enthalpy (∆H) as well as a binding constant (Ka), reflecting the affinity of the lipopeptide to liposomes, stoichiometry of binding (n), that is, the number of phospholipids per peptide, by fitting the titration result data to one set of sites’ model using Origin 7 from MicroCal. Changes in entropy (∆S) and the Gibbs free energy (∆G) were calculated from Equation (1), where factor 55.5 is the molar concentration of water, R is the gas constant (1.986 cal·mol^−1·K^−1) and T is the absolute temperature:∆G = -RTln(55.5Ka) = ∆H-T∆S(1)
The liposomes for ITC experiments were made of POPC or POPG lipids. The lipids were dissolved in a chloroform:methanol (2:1; v/v) mixture, evaporated under nitrogen and desiccated under vacuum overnight to remove any residual solvents. Afterwards, the dry lipid film was resuspended in a phosphate buffer solution and shaken for 2 h at room temperature (phase transition point, Tm = −2 °C) to obtain multilamellar vesicles (MLVs). […]

[5] = tested on: P. aeruginosa PA2; format: cell-based, Pseudomonas aeruginosa
Source text: as §1, §2

[6] = tested on: P. aeruginosa PA1; format: cell-based, Pseudomonas aeruginosa
Source text: as §1, §2

[7] = P. aeruginosa PA2 clinical isolate
[8] = P. aeruginosa PA1 clinical isolate

Structure (SMILES)	BEC50 [1] [µg/mL]	MIC100 [2] [µg/mL]	MIC100 ([3]; K.pneumoniae ATCC 13883) [µg/mL]	MIC100 [5, 7] [µg/mL]	MIC100 [6, 8] [µg/mL]	also measured
CC[C@H](C)[C@H](NC(=O)COCCOCCNC(=O)[C@H](Cc1c[nH]cn1)NC(=O)CCNC(=O)CCCCCN)C(=O)N[C@@H](CCCCN)C(=O)N[C@@H](CCCCN)C(=O)N[C@H](C(=O)N[C@@H](CC(C)C)C(=O)N[C@@H](CO)C(=O)N[C@@H](CCCCN)C(=O)N[C@H](C(=O)N[C@@H](CCCCN)C(=O)N[C@@H](CCCCN)C(=O)N[C@@H](CC(C)C)C(=O)N[C@@H](CC(C)C)C(N)=O)[C@@H](C)CC)[C@@H](C)CC [AHX-CAR-PEG-DK5] (H-[Ahx][βAla]H[AEEA]IKKILSKIKKLL-NH2)	>50					
CC[C@H](C)[C@H](NC(=O)CCCCCN)C(=O)N[C@@H](CCCCN)C(=O)N[C@@H](CCCCN)C(=O)N[C@H](C(=O)N[C@@H](CC(C)C)C(=O)N[C@@H](CO)C(=O)N[C@@H](CCCCN)C(=O)N[C@H](C(=O)N[C@@H](CCCCN)C(=O)N[C@@H](CCCCN)C(=O)N[C@@H](CC(C)C)C(=O)N[C@@H](CC(C)C)C(N)=O)[C@@H](C)CC)[C@@H](C)CC [AHX-DK5] (H-[Ahx]IKKILSKIKKLL-NH2)	25					
CCCCC(=O)NCCC(=O)N[C@@H](Cc1c[nH]cn1)C(=O)NCCOCCOCC(=O)N[C@H](C(=O)N[C@@H](CCCCN)C(=O)N[C@@H](CCCCN)C(=O)N[C@H](C(=O)N[C@@H](CC(C)C)C(=O)N[C@@H](CO)C(=O)N[C@@H](CCCCN)C(=O)N[C@H](C(=O)N[C@@H](CCCCN)C(=O)N[C@@H](CCCCN)C(=O)N[C@@H](CC(C)C)C(=O)N[C@@H](CC(C)C)C(N)=O)[C@@H](C)CC)[C@@H](C)CC)[C@@H](C)CC [C5-CAR-PEG-DK5] ({Pentanoyl-βAla}-H[AEEA]IKKILSKIKKLL-NH2)	>50					
CCCCCCCCCCCC(=O)NCCC(=O)N[C@@H](Cc1c[nH]cn1)C(=O)NCCOCCOCC(=O)N[C@H](C(=O)N[C@@H](CCCCN)C(=O)N[C@@H](CCCCN)C(=O)N[C@H](C(=O)N[C@@H](CC(C)C)C(=O)N[C@@H](CO)C(=O)N[C@@H](CCCCN)C(=O)N[C@H](C(=O)N[C@@H](CCCCN)C(=O)N[C@@H](CCCCN)C(=O)N[C@@H](CC(C)C)C(=O)N[C@@H](CC(C)C)C(N)=O)[C@@H](C)CC)[C@@H](C)CC)[C@@H](C)CC [C12-CAR-PEG-DK5] ({Lauroyl-βAla}-H[AEEA]IKKILSKIKKLL-NH2)		12.5 (≈ 6.38 µM)	12.5 (≈ 6.38 µM)	25 (≈ 12.8 µM)	12.5 (≈ 6.38 µM)	pKITC [4]: 5.38 ± 0.14
CCCCCCCCCCCCCCCC(=O)NCCC(=O)N[C@@H](Cc1c[nH]cn1)C(=O)NCCOCCOCC(=O)N[C@H](C(=O)N[C@@H](CCCCN)C(=O)N[C@@H](CCCCN)C(=O)N[C@H](C(=O)N[C@@H](CC(C)C)C(=O)N[C@@H](CO)C(=O)N[C@@H](CCCCN)C(=O)N[C@H](C(=O)N[C@@H](CCCCN)C(=O)N[C@@H](CCCCN)C(=O)N[C@@H](CC(C)C)C(=O)N[C@@H](CC(C)C)C(N)=O)[C@@H](C)CC)[C@@H](C)CC)[C@@H](C)CC [C16-CAR-PEG-DK5] ({Palmitoyl-βAla}-H[AEEA]IKKILSKIKKLL-NH2)	6.25					
CC[C@H](C)[C@H](NC(=O)COCCOCCNC(=O)[C@H](Cc1c[nH]cn1)NC(=O)CCN)C(=O)N[C@@H](CCCCN)C(=O)N[C@@H](CCCCN)C(=O)N[C@H](C(=O)N[C@@H](CC(C)C)C(=O)N[C@@H](CO)C(=O)N[C@@H](CCCCN)C(=O)N[C@H](C(=O)N[C@@H](CCCCN)C(=O)N[C@@H](CCCCN)C(=O)N[C@@H](CC(C)C)C(=O)N[C@@H](CC(C)C)C(N)=O)[C@@H](C)CC)[C@@H](C)CC [CAR-PEG-DK5] (H-[βAla]H[AEEA]IKKILSKIKKLL-NH2; N-terminus and C-terminus assumed)	>50	>200				MIC100 ([3]; ATCC 13883, 24 h): >200 µg/mL; MIC100 ([5]; PA2, 24 h): 100 µg/mL (≈ 56.3 µM); MIC100 ([6]; PA1, 24 h): 100 µg/mL (≈ 56.3 µM)
CCCCC(=O)N[C@H](C(=O)N[C@@H](CCCCN)C(=O)N[C@@H](CCCCN)C(=O)N[C@H](C(=O)N[C@@H](CC(C)C)C(=O)N[C@@H](CO)C(=O)N[C@@H](CCCCN)C(=O)N[C@H](C(=O)N[C@@H](CCCCN)C(=O)N[C@@H](CCCCN)C(=O)N[C@@H](CC(C)C)C(=O)N[C@@H](CC(C)C)C(N)=O)[C@@H](C)CC)[C@@H](C)CC)[C@@H](C)CC [Compound C5-DK5] (Pentanoyl-IKKILSKIKKLL-NH2)	>50	25 (≈ 16.6 µM)	50 (≈ 33.2 µM)	25 (≈ 16.6 µM)	25 (≈ 16.6 µM)	binding constants (order of) ([4]; POPC vesicles): either a lack of interactions or that the binding was too weak to be detectable by ITC
CCCCCCCCCCCC(=O)N[C@H](C(=O)N[C@@H](CCCCN)C(=O)N[C@@H](CCCCN)C(=O)N[C@H](C(=O)N[C@@H](CC(C)C)C(=O)N[C@@H](CO)C(=O)N[C@@H](CCCCN)C(=O)N[C@H](C(=O)N[C@@H](CCCCN)C(=O)N[C@@H](CCCCN)C(=O)N[C@@H](CC(C)C)C(=O)N[C@@H](CC(C)C)C(N)=O)[C@@H](C)CC)[C@@H](C)CC)[C@@H](C)CC [Compound C12-DK5] (Lauroyl-IKKILSKIKKLL-NH2)	6.25	25 (≈ 15.6 µM)	25 (≈ 15.6 µM)	50 (≈ 31.1 µM)	50 (≈ 31.1 µM)	pKITC [4]: 4.40 ± 0.19
CCCCCCCCCCCCCCCC(=O)N[C@H](C(=O)N[C@@H](CCCCN)C(=O)N[C@@H](CCCCN)C(=O)N[C@H](C(=O)N[C@@H](CC(C)C)C(=O)N[C@@H](CO)C(=O)N[C@@H](CCCCN)C(=O)N[C@H](C(=O)N[C@@H](CCCCN)C(=O)N[C@@H](CCCCN)C(=O)N[C@@H](CC(C)C)C(=O)N[C@@H](CC(C)C)C(N)=O)[C@@H](C)CC)[C@@H](C)CC)[C@@H](C)CC [Compound C16-DK5] (Palmitoyl-IKKILSKIKKLL-NH2)	6.25					
